Measurements: patent publication US11975005B2, “Treatment of respiratory diseases” (TIANLI BIOTECH PTY LTD, priority 2015, dated 2024)

Legend:
bleomycin-treated mice = system: bleomycin-treated mice
Source text: Bleomycin is commonly used in mice to model pulmonary fibrosis. This anti-cancer agent is known to induce pulmonary fibrosis in a subset of patients. […] Eventually the intensity of the fibrosis declines but never fully resolves. Early treatment in the model (during the first 3 days) may influence the outcome via anti-inflammatory effects (Limjunyawong et al. (2014) Physiol Rep. 2(2): e00249). Delayed treatment is used to specifically examine impact on the fibrogenic process.

GRE-regulated genes = assay: PF670462 aerosol exposure of Balb/C mice, lung gene expression; format: in vivo; settings: Balb/C female mice; aerosol 0.03-10 mg/ml, 7 min, 24 and 4 hours before harvest
Source text: […] and GILZ are known to exert anti-inflammatory actions in by suppression of the master pro-inflammatory transcription factor, NFκB.

[1] = system: glucocorticoid response element (GRE) activity; assay: GRE activity / GRE reporter in BEAS-2B cells; format: cell-based, human; settings: for TGFβ1-induced suppression of the GRE activity stimulated by Dex (30 nM): PF670462 1 or 10 μM 30 min before TGFβ1 for 24 hours
Method: Data are presented as the means and SEM of 3 independent experiments. *P<0.05, cf corresponding Dex 30 nM response.
(§1) The methods used in Examples 1 to 5 (and 10, 19, 20) are similar to those reported in Salem et al 2012 (Br J Pharmacol. 166:2036-2048) and again in Keenan et al 2014 (Respiratory Research, e15:55) in which methods for cell culture, GRE assays and gene expression measurements are fully described. Additional methods for growth of respiratory syncytial virus (RSV) and rhinovirus (RV) are described in Collins et al 2007 (Respir Physiol Neurobiol. 2007 Jun. 15; 156(3):345-52.) and by Xatzipsalti and papdopoulos, 2007 (Contrib Microbiol. 2007; 14:33-41).

[2] = system: primary human airway epithelial cells; assay: Dex-induced gene expression in ALI-differentiated primary human airway epithelial cells; format: cell-based; settings: 3 and 10 μM
Source text: as §1
These studies were undertaken in ALI-differentiated culture of primary human airway epithelial cells.

[3] = system: human parenchymal fibroblasts; assay: TGFβ-induced fibrogenic gene expression in human parenchymal lung fibroblasts; format: cell-based
Source text: Experiments described in the current Example and Example 14 involved culture of human parenchymal fibroblasts, measurement of their proliferation and gene expression response, the methods for which are detailed in Schuliga et al 2009 (Am J Respir Cell Mol Biol. 2009; 41(6):731-41).
The investigation of fibrogenesis may be undertaken in in vivo models typically using rodents. However, differences in behavior of cell types and species differences in protein structures and signaling systems create some limitations in the predictive value of such models. Additional valuable evidence of impacts on fibrogenesis can be obtained from the use of human fibroblasts isolated from the parenchyma and maintained in cell culture (Schuliga et al. (2009) Am J Respir Cell Mol Biol 41(6):731-741; Westergren-Thorsson et al. (2004) Int J Biochem Cell Biol 36(8): 1573-1584).
The data shown is for parenchymal lung fibroblasts from both patients with the pulmonary fibrotic disease, idiopathic pulmonary fibrosis (IPF) and those derived samples of non-IPF donors. […] Colla is a subunit of the fibrillar type collagen that is deposited in excess in the extracellular matrix in fibrotic lesions.
FIG. 15B was performed in the same manner as for FIG. 15A except that in this experiment the fibroblasts are cultured as a suspended spheroid, rather than in 2D monolayer culture.

[4] = system: GRE-dependent gene expression; assay: Glucocorticoid-induced gene expression in BEAS-2B cells; format: cell-based, human
Source text: as §1
Data are presented as the means and SEM of 4 independent experiments. *P<0.05, cf corresponding Dex 30 nM response. […] Thus, TNFα contribution to glucocorticoid resistance, may be independent of TGFβ. The resistance is exemplified by the epithelial sodium channel alpha subunit SCNN1a which assembles into a Na channel that is thought to contribute to water reabsorption from the airspaces that are flooded during acute lung injury.
TGFβ suppression ranged in magnitude amongst the genes selected for analysis. […] TGFβ and Dex synergise in increasing the expression of PAI-1 (FIG. 24B).

ALK5 = target: T1, ALK5 (Homo sapiens, UniProt P36897); assay: ALK5 inhibition (IC50); format: biochemical
T1 sequence (P36897 34-503): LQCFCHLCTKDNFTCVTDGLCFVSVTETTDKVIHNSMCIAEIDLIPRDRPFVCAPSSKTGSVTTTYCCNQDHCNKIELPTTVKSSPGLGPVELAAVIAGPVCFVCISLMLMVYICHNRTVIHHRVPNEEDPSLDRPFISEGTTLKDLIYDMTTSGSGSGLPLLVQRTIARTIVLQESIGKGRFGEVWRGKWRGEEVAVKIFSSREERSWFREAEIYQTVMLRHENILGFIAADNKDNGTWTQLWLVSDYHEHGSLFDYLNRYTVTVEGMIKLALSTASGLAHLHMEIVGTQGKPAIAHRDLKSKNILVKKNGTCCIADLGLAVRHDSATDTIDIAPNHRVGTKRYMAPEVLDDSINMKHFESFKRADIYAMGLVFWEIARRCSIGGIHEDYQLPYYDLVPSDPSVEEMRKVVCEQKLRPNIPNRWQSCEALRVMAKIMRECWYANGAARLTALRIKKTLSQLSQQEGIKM

[5] = 3-day bleomycin, female mice, PF670462 30 mg/kg ip
[6] = 14 days bleomycin, PF670462 30 mg/kg/day delayed until day 3
[7] = 21 day bleomycin, female mice, PF670462 daily from day 8 until day 21
[8] = 21 day bleomycin, female mice, PF670462 day 8 to 21
[9] = BEAS-2B, Dex 100 nM, PF670462 1-10 μM prior incubation
[10] = FIG. 6A, BEAS-2B, SB431542 1 μM, PF670462 10 μM

Nc1nccc(-c2c(-c3ccc(F)cc3)ncn2C2CCCCC2)n1 [PF670462]
Bleomycin induction of CTGF in lung tissue (bleomycin-treated mice; [5]): significantly reduced | Bleomycin induction of Col1a in lung tissue (bleomycin-treated mice; [5]): significantly reduced | Bleomycin induction of PAI-1 in lung tissue (bleomycin-treated mice; [5]): significantly reduced | Bleomycin induction of TIMP1 in lung tissue (bleomycin-treated mice; [5]): significantly reduced | BAL protein levels (bleomycin-treated mice; 3-day bleomycin, female mice, PF670462 30 mg/kg ip once daily): significantly reduced | BAL cells (increase by bleomycin) (bleomycin-treated mice; 3-day bleomycin, male mice): but not in PF670462- or Dex-treated mice | Col1A expression increased by bleomycin, lung tissue (bleomycin-treated mice; 3-day bleomycin, male mice): reduced | Col3 expression increased by bleomycin, lung tissue (bleomycin-treated mice; 3-day bleomycin, male mice): reduced | IL-6 increases in response to bleomycin, lung tissue (bleomycin-treated mice; 3-day bleomycin, male mice): reduced | TIMP1 expression increased by bleomycin, lung tissue (bleomycin-treated mice; 3-day bleomycin, male mice): reduced | fibrogenesis / efficacy in the bleomycin model (bleomycin-treated mice; 4 independent studies, 3 to 21 days, male and female mice, PF670462 30 mg/kg/day, ip): able to reduce fibrogenesis | accumulation of cells on the BAL fluid (bleomycin-treated mice; [6]): significantly reduced | wet weight of the lung (bleomycin-treated mice; [6]): significantly reduced | accumulation of cells in the BAL (bleomycin-treated mice; [7]): significantly reduced | accumulation of protein in the BAL (bleomycin-treated mice; [7]): significantly reduced | increase in lung wet weight (bleomycin-treated mice; [7]): significantly reduced | expression of CTGF in the lung tissue (bleomycin-treated mice; [8]): significantly reduced | expression of interleukin-6 (IL-6) in the lung tissue (bleomycin-treated mice; [8]): significantly reduced | expression of plasminogen activation inhibitor-1 (PAI-1) in the lung tissue (bleomycin-treated mice; [8]): significantly reduced | expression of glucocorticoid regulated gene GILZ in lung (bleomycin-treated mice; 21 day experiment, equally in saline and bleomycin-treated mice): induced | lung expression of GILZ (GRE-regulated genes): dose-related increase | lung expression of ZBTB116 (GRE-regulated genes): dose-related increase | maximum effect of the glucocorticoid (budesonide, dexamethasone 1-100 nM) on GRE reporter construct ([1]; BEAS 2B cells, PF670462 0.3-10 μM): concentration dependently increased | TGFβ1-induced suppression of the GRE activity stimulated by Dex (30 nM) ([1]; BEAS-2B cells): concentration-dependently attenuated | TGFβ1-induced suppression of the GRE activity stimulated by Dex (30 nM) ([1]; BEAS-2B cells, listed as PF674062): prevents | impairment of Dexamethasone 30 nM GRE responses by Rhinovirus (RV16) infection ([1]; BEAS-2B cells, RV16 0.1 or 1.0 MOI, SB431542 1 μM): prevented | Suppression of glucocorticoid-induced GRE responses to Dex (30 nM) induced by the combination TNFα, IL-13 and IL-4 ([1]; BEAS-2B cells, cytokines each at 1 or 10 ng/ml, PF670462 1 or 10 μM): attenuated | TGFβ suppression of (Dex 30 nM)-induced expression of SCNNIA [2]: prevented | TGFβ suppression of (Dex 30 nM)-induced expression of ZBTB16 [2]: prevented | TGFβ induction of Col1a (collagen 1A) expression ([3]; 2D monolayer fibroblasts from IPF and non-IPF donors, TGFβ 24 hour, 3 μM): significantly suppressed | TGFβ-induced collagen 1A expression in IPF fibroblasts cultured as suspended spheroid ([3]; FIG. 15B, 3 μM): inhibits | TGFβ-induced collagen 1A increase in non-IPF derived cultures as suspended spheroid ([3]; FIG. 15B, 3 μM): not signficantly affected | fibrogenic actions of TGFβ (FIGS. 15A-C, collagen 1A and CTGF) ([3]; IPF or non-IPF donors, 2D or 3D): inhibited | suppression of Dex (30 nM) gene expression response (SCNN1a) induced by IL-13/IL-4 ([4]; BEAS-2B cells, IL-13/IL-4 at 10 ng/ml, PF670462 1 or 10 μM, SB431542 1 μM): partially attenuated | RSV-induced impairment of Dexamethasone ZBTB16 gene expression responses ([4]; BEAS-2B cells, RSV 0.1 or 1.0 MOI, pretreatment): prevented | impairment of Dexamethasone 30 nM GILZ gene expression responses by RV16 infection ([4]; BEAS-2B cells, RV16 1.0 MOI, pretreatment): greatly diminished | TGFβ1 induced suppression of gene expression responses to Dex (30 nM), exemplified by SCNN1a expression ([4]; BEAS-2B cells, TGFβ1 24 hours, PF670462 1 or 10 μM): concentration dependently attenuated | suppression of Dex (30 nM) gene expression response (SCNN1a) induced by the combination TNFα, IL-13 and IL-4 ([4]; BEAS-2B cells, each at 0.1 ng/ml, PF670462 1 or 10 μM, SB431542 1 μM): partially attenuated | TGFβ suppression of glucocorticoid-induced CDKN1C (p57kip2) expression ([4]; BEAS-2B, Dex 100 nM, PF670462 1-10 μM): unaffected | TGFβ suppression of Dex-induced expression of FKBP5 [4, 9]: prevented | TGFβ suppression of Dex-induced expression of GILZ [4, 9]: prevented | TGFβ suppression of Dex-induced expression of SCNNIA (ENaCα) [4, 9]: prevented | TGFβ suppression of Dex-induced expression of ZBTB16 (PLZF) [4, 9]: prevented | increase in expression of PAI-1 by TGFβ and Dex ([4]; BEAS-2B, FIG. 24B, PF670462 1-10 μM): concentration-dependently reduced | levels of GILZ in RV infected cells [4, 10]: increased | levels of GILZ in uninfected cells [4, 10]: but not in uninfected cells | RV infection-induced decrease of Dex-induced GILZ expression ([4]; FIG. 6B, BEAS-2B, SB431542 3 μM, PF670462 3 μM): prevented | IC50 (ALK5): 1160 nM
